Reference: patent US20210318318A1, “Kinase Activity In Tumors” (Institute For Cancer Research d/b/a The Research Institute …, priority 2018, published 2021)

What was measured:
ROCK2 = target: T1, ROCK2 (Homo sapiens, UniProt O75116); experiment: MIB/MS kinome profiling of inhibitor-treated OVSAHO cells; format: cell-based; conditions: 2 μM, 4 hours
T1 construct: endogenous in cells; host or cells: OVSAHO
Procedure: (§1) OVSAHO cells were treated with 2 μM of inhibitor for 4 hours and analyzed by MIB/MS. Scatterplot depicts difference in kinase MIB-binding of drug treated relative to control DMSO as determined by Students T-test.
(§2) MIB-based kinome profiling was performed on several of these molecules in HGSOC cells to determine kinome-wide inhibition profiles.
Experiments using MIB/MS were performed as previously described (Duncan et al., Cell, 2012, 149, 307-321; and Kurimchak et al., Cell Reports, 2016, 16, 1273-1286). Briefly, cells or tumors were lysed on ice in buffer containing 50 mM HEPES (pH 7.5), 0.5% Triton X-100, 150 mM NaCl, 1 mM EDTA, 1 mM EGTA, 10 mM sodium fluoride, 2.5 mM sodium orthovanadate, 1× protease inhibitor cocktail (Roche), and 1% each of phosphatase inhibitor cocktails 2 and 3 (Sigma). Particulate was removed by centrifugation of lysates at 13,000 rpm for 10 minutes at 4° C. and filtration through 0.2 μm syringe filters. Protein concentrations were determined by BCA analysis (Thermo). To compare kinome signatures within and across such large sample sizes, a super-SILAC method was designed (Neubert et al., Nat. Meth., 2010, 7, 361-362) consisting of a cocktail of cancer cell lines that encompasses the activity of the “cancer kinome” to be used as a control for individual samples. […] An equal amount of the HKS was added to the non-labeled sample (cell, tumor or normal tissue) providing a quantitative strategy to compare kinome activity/levels across samples, amongst treatments and, importantly, across time. […]
(§3) Proteolytic peptides were resuspended in 0.1% formic acid and separated with a Thermo RSLC Ultimate 3000 on a Thermo Easy-Spray C18 PepMap 75 μm×50 cm C-18 2 μm column with a 240 minute gradient of 4-25% acetonitrile with 0.1% formic acid at 300 nL/min and 50° C. Eluted peptides were analyzed by a Thermo Q Exactive plus mass spectrometer utilizing a top 15 methodology in which the 15 most intense peptide precursor ions were subjected to fragmentation.

COV362 = experiment: Short-term growth assay (CellTiter-Glo cell viability), kinase inhibitors; format: cell-based, human; conditions: increasing concentrations, Cell Titer Glo
Procedure: Cell viability was determined by Cell Titer Glo analysis.
COV362 cells were treated with increasing concentrations of A-674563 and cell viability assessed by Cell Titer Glo according to manufacturer's instructions. Data represent the mean of six replicates.
To explore the therapeutic potential of the HGSOC kinome signature, a detailed molecular analysis of protein levels/activity, growth and survival functions was carried out in a panel of recently validated HGSOC cell lines (Coscia et al., Nat. Commun., 2016, 7, 12645) that harbor commonly encountered HGSOC mutations and genetic rearrangements (see, FIG. 5A).
For short-term growth assays, 3000-5000 cells were plated per well in 96-well plates and allowed to adhere and equilibrate overnight. Drug was added the following morning and after 120 hours of drug treatment, cell viability was assessed using the CellTiter-Glo Luminescent cell viability assay according to manufacturer (Promega). Students t tests were performed for statistical analyses and p values ≤0.05 were considered significant. For colony formation assays, cells were plated in 24-well dishes (3000-5000 cells per well) and incubated overnight before continuous drug treatment for 14 days, with drug and media replaced twice weekly. At the end of treatment, cells were rinsed with PBS and fixed with chilled methanol for 10 minutes at −20° C. Methanol was removed by aspiration, and cells were stained with 0.5% crystal violet in 20% methanol for 20 minutes at room temperature, washed with distilled water, and scanned.

MRCKA = MRCKA (Homo sapiens, UniProt Q5VT25); experiment: MIB/MS kinome profiling of inhibitor-treated OVSAHO cells; format: cell-based; design: endogenous in cells; host or cells: OVSAHO; conditions: 2 μM, 4 hour treatment
Procedure: (§4) OVSAHO cells were treated with inhibitors at a dose of 2 μM for 4 hours and kinase inhibition profiles determined by MIB/MS. Bar graph depicts % of kinase bound to MIBs relative to DMSO control as determined by label free quantitation.
as §1, §2
(§5) Experiments using MIB/MS were performed as previously described (Duncan et al., Cell, 2012, 149, 307-321; and Kurimchak et al., Cell Reports, 2016, 16, 1273-1286). Briefly, cells or tumors were lysed on ice in buffer containing 50 mM HEPES (pH 7.5), 0.5% Triton X-100, 150 mM NaCl, 1 mM EDTA, 1 mM EGTA, 10 mM sodium fluoride, 2.5 mM sodium orthovanadate, 1× protease inhibitor cocktail (Roche), and 1% each of phosphatase inhibitor cocktails 2 and 3 (Sigma). Particulate was removed by centrifugation of lysates at 13,000 rpm for 10 minutes at 4° C. and filtration through 0.2 μm syringe filters. Protein concentrations were determined by BCA analysis (Thermo). To compare kinome signatures within and across such large sample sizes, a super-SILAC method was designed (Neubert et al., Nat. Meth., 2010, 7, 361-362) consisting of a cocktail of cancer cell lines that encompasses the activity of the “cancer kinome” to be used as a control for individual samples. Five cancer cell lines were selected from the NCI-60 panel (UACC257, MOLT4, COL0205, ACHN and PC3) that differed in their origin, gene expression patterns and mutation status. The cancer cell lines were labeled using SILAC and mixed equally providing a diverse SILAC ([^13C6,^15N4] arginine (Arg^10) and […] (Lys^8)) heavy kinome reference standard (HKS) to be used repeatedly in kinome profiling assays. An equal amount of the HKS was added to the non-labeled sample (cell, tumor or normal tissue) providing a quantitative strategy to compare kinome activity/levels across samples, amongst treatments and, importantly, across time. […]
as §3

HGSOC cells = experiment: Apoptosis in inhibitor-treated HGSOC cells; format: cell-based, human; conditions: increasing doses
[1] = test system: FAK1, MLC and Paxillin phosphorylation; FAK1 and CHEK1 protein levels; experiment: Western blot of signaling in inhibitor-treated HGSOC cells; format: cell-based, human; conditions: 48 hours
Procedure: COV362 cells were treated with 0.5, 1 or 3 μM of A-674563 or SB-772077 for 48 hours and signaling monitored by western blot.
Samples were harvested in MIB lysis buffer, subjected to SDS-PAGE […] and transferred to PVDF membranes before western blotting with primary antibodies. For pMYPT and pMLC blots, cells were harvested in a buffer containing 1% (w/v) SDS, 50 mM Tris pH 7.5 supplemented with protease and phosphatase inhibitors buffer and were passed through QIAshredder columns (Qiagen, 79654), (Unbekandt et al., Cell Commun. Signal., 2014, 12, 54). For the list of primary antibodies used, see Table 4. Secondary HRP-anti-rabbit and HRP-anti-mouse were obtained from ThermoFisher Scientific. SuperSignal West Pico and Femto Chemiluminescent Substrates (Thermo) were used to visualize blots.

MRCKB = target: T2, MRCKB (Homo sapiens, UniProt Q9Y5S2); experiment: MIB/MS kinome profiling of inhibitor-treated OVSAHO cells; format: cell-based; conditions: 2 μM, 4 hour treatment
T2 construct: endogenous in cells; host or cells: OVSAHO
Procedure: as §4, §1, §2, §5, §3

Chain of MRCKA (Q5VT25 whole entry): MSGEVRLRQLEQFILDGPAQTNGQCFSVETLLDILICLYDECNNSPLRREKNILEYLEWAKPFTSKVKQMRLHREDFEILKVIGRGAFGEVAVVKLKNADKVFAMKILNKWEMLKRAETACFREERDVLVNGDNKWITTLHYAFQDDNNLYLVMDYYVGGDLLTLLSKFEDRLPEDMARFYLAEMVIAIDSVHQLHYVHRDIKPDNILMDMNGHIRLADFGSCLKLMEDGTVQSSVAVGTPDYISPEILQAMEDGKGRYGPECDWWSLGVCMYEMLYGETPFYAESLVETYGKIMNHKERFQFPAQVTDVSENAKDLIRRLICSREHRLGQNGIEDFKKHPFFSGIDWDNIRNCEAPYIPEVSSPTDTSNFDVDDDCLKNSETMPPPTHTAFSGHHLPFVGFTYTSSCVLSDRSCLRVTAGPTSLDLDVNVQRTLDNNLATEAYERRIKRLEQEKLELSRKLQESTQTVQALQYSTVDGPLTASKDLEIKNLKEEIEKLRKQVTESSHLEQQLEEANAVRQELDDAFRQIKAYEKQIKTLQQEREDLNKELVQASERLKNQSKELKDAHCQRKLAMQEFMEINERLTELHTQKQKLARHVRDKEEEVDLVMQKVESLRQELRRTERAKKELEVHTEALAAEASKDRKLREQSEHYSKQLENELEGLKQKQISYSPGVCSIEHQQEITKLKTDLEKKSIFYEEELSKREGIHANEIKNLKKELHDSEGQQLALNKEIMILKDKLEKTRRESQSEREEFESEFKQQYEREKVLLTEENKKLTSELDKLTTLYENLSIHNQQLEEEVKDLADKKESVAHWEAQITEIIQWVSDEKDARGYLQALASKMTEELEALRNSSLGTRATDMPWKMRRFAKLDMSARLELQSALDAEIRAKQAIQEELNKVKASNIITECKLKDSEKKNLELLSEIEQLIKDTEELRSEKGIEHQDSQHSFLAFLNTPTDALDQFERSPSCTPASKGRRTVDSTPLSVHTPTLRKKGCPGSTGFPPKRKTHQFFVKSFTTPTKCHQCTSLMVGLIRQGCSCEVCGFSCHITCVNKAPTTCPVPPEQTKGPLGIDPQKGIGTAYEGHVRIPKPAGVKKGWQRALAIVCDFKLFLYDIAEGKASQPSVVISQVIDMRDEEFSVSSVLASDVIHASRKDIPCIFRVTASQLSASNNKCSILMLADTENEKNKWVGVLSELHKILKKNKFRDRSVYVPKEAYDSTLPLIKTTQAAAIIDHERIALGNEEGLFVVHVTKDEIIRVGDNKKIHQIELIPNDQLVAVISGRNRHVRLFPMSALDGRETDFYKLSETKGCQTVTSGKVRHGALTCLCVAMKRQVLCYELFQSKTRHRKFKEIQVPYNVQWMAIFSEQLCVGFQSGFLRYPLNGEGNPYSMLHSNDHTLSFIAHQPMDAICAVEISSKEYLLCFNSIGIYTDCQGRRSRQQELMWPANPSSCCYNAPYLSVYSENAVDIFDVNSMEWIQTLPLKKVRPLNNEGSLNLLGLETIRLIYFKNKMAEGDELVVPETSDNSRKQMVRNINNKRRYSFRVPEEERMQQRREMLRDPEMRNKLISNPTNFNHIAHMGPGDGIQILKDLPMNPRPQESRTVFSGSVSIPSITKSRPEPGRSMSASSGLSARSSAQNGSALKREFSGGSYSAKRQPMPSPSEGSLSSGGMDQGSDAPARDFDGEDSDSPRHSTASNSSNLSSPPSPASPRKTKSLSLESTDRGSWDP
T2 sequence (Q9Y5S2 whole entry): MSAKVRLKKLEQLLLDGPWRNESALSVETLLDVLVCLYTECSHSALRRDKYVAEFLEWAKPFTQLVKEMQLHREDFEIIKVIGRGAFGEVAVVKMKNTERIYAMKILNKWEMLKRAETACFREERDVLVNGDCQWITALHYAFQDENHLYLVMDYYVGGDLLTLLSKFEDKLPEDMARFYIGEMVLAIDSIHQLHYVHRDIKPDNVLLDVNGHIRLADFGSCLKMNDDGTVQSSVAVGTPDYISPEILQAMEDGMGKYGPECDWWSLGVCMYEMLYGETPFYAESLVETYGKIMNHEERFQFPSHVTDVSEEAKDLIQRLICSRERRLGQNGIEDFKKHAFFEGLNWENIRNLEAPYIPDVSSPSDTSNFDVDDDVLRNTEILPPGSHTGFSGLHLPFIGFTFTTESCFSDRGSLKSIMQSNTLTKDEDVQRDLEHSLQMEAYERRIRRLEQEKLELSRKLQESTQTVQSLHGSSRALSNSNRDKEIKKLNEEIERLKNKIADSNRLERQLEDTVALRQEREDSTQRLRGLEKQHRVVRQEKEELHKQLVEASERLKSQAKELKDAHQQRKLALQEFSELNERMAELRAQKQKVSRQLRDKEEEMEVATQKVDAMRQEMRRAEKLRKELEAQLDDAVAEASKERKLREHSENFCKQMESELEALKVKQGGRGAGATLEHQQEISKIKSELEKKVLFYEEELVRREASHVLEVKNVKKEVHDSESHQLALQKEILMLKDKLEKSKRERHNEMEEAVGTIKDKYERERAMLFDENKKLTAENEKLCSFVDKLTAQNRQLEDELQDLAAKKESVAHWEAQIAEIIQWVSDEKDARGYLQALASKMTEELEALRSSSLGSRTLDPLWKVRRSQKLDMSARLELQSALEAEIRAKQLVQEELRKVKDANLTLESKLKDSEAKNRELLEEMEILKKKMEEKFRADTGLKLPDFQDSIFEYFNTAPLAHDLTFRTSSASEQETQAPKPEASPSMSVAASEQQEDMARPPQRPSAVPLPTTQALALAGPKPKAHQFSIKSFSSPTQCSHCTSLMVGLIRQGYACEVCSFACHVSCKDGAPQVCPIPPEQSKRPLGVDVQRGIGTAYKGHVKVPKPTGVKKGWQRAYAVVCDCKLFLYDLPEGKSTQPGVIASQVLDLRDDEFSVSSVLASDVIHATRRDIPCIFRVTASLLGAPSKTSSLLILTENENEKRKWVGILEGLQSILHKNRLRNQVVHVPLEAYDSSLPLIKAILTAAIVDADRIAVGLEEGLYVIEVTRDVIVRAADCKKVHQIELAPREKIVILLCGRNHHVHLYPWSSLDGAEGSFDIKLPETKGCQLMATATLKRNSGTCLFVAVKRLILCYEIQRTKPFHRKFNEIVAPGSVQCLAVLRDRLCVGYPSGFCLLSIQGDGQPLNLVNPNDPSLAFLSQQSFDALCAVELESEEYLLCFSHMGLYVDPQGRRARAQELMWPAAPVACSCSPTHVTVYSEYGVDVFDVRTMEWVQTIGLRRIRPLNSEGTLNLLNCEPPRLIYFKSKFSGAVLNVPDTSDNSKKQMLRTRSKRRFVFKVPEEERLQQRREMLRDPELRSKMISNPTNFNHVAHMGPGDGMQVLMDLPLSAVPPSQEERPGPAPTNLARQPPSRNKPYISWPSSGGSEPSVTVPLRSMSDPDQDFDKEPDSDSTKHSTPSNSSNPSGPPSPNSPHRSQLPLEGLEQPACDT
T1 sequence (O75116 whole entry): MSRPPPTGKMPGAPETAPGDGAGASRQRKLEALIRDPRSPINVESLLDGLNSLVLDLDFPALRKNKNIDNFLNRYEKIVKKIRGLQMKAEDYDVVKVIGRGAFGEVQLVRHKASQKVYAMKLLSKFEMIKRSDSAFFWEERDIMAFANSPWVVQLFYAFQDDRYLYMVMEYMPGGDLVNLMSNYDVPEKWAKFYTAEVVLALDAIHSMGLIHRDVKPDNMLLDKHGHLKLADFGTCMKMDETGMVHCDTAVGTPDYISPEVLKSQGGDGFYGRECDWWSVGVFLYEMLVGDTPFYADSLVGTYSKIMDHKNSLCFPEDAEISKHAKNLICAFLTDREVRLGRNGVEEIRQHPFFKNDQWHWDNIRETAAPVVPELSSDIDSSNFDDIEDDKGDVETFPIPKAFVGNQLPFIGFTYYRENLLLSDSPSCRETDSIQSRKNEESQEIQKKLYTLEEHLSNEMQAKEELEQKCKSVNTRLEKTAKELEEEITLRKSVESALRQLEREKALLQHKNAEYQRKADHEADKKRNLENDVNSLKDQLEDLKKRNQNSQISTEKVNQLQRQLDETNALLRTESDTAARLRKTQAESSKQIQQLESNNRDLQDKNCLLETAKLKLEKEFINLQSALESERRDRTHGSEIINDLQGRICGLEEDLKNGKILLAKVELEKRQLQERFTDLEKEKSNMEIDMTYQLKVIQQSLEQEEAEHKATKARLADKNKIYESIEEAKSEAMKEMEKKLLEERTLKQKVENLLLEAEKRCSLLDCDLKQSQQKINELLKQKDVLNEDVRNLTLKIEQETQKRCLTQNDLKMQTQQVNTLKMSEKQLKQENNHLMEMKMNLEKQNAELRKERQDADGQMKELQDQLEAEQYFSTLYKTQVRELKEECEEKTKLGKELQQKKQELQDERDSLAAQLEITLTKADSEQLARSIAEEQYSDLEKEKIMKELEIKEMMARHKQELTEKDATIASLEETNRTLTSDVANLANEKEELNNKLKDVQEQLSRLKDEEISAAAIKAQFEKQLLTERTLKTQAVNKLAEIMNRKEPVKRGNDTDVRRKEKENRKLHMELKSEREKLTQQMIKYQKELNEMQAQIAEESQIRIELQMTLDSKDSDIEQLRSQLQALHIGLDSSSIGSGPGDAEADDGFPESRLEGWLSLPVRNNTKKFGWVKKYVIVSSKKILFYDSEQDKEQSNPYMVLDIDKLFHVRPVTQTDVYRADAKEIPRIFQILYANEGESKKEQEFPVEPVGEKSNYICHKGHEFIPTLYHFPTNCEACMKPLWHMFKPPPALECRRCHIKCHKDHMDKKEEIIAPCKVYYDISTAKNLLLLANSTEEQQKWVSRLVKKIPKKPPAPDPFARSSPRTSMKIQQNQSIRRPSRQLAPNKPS

Cc1[nH]nc2ccc(-c3cncc(OC[C@@H](N)Cc4ccccc4)c3)cc12 [A-674563] was tested, and the “MIB-binding of ROCK2” value (ROCK2) was “did not influence”, the cell viability (COV362) was “inhibited cell viability” and the “MIB-binding of MRCKA relative to DMSO” value (MRCKA) was “greatest reduction”. For the same molecule, the apoptosis (HGSOC cells) was “induced apoptosis”, the “FAK1 and CHEK1 protein levels” value ([1]; HGSOC (COV362) cells, 0.5, 1 or 3 μM) was “uniquely reduced” and the “FAK1, MLC and Paxillin phosphorylation” value ([1]; HGSOC (COV362) cells, increasing doses 0.5, 1 or 3 μM) was “inhibited”. For the same molecule, the “MIB-binding of MRCKB relative to DMSO” value (MRCKB) was “Reduced MIB-binding”.
